In US12264170B2, “Antimicrobial organosilanes” (TOPIKOS SCIENTIFIC, INC., priority 2019, dated 2025) one finds MIC data, which are given here for 1 molecule.

Molecules are shown by their SMILES. Values after ≈ are worked out from the molar mass of the structure shown. Read-outs that look alike come from different tables or passages of the source.

The test system of one test is S. pyogenes ATCC 51339. In words: MIC microdilution assay. In kind it is cell-based, Steptococcus pyogenes. The conditions noted are these: broth +5% defibrinated sheep blood, 35±2° C. 18 to 20 hours, two values given. On the procedure: (§1) Strain numbers starting with “ATCC” were acquired from the American Type Culture Collection (Manassas, VA), while strain numbers starting with “CDC” were acquired from the Centers for Disease Control and Prevention (Atlanta, GA). All strains were maintained as −80° C. frozen glycerol stocks. S. aureus and P. aeruginosa were grown overnight on Tryptic Soy Agar (TSA) plates at 35±2° C., ambient atmosphere, while S. pyogenes was grown overnight on TSA+5% defibrinated sheep blood at 35±2° C., 5% CO2. All fungal species (i.e. C. albicans, C. auris and C. herbarum) were grown on Sabouraud Dextrose Agar (SDA) plates. C. herbarum was grown at 25±2° C. for 5 to 7 days, while all other fungal strains were grown at 35±2° C. overnight.
(§2) Test articles Compound 2 (batch #2G13A0.368) and Compound 23 (batch #2G17A0.372) were received and stored at 4° C. The antibiotic Tobramycin and antifungal Amphotericin B were used as quality control (QC) compounds for the MIC assay. Stock solutions of 3.2 mg/mL Tobramycin (Sigma-Aldrich, cat #T1783-500MG) and 3.2 mg/mL Amphotericin B (CP Lab Chemicals, cat #TOK-A007-1G) were prepared in sterile ultrapure water.
(§3) For bacteria strains, a few colonies of each strain were collected with a sterile swab and used to make a McFarland 0.5 standard solution (approximately 1×10^8 CFU/mL) in sterile PBS. The McFarland was then diluted 1:180 in Cation Adjusted Muller-Hinton Broth (CAMHB) for S. aureus and P. aeruginosa, and in […]+5% defibrinated sheep blood for S. pyogenes. 90 μL of this inoculum was combined with 10 μL of the 10× test article in a 96-well plate for a final concentration of 1×.
(§4) All bacterial-strain MIC 96-well plates were incubated at 35±2° C. for 18 to 20 hours, while all Candida MIC 96-well plates were incubated at 35±2° C. for 24 to 48 hours. C. herbarum MIC 96-well plates were incubated at 25±2° C. for 3 to 5 days, until growth was visible in the growth control wells. After incubation, the 96-well plates were examined visually and on a spectrophotometer at absorbance OD650. […]
In general terms: In broth dilution the organism is exposed to a series of concentrations in liquid medium.

Another test has as its system Candida auris CDC 0381. Briefly: MIC microdilution assay. In kind it is cell-based. The conditions noted are these: Candidozyma auris, CDC0381; C. auris CDC 0381; RPMI media; 35±2° C. 24 to 48 hours; two values given; read-out: MIC. How it is done: as §1, §2, §3
(§5) For the yeasts C. albicans and C. auris, a McFarland 0.5 standard solution in sterile PBS was similarly prepared (approximately 1×10^6 CFU/mL) and was subsequently diluted 1:180 in RPMI 1640 media buffered with 0.165 M MOPS at pH 7.0 (herein referred to as “RPMI media”). 90 μL of the Candida inoculum was combined with 10 μL of the 10× test article in a 96-well plate for a final concentration of 1×.
(§6) All bacterial-strain MIC 96-well plates were incubated at 35±2° C. for 18 to 20 hours, while all Candida MIC 96-well plates were incubated at 35±2° C. for 24 to 48 hours. C. herbarum MIC 96-well plates were incubated at 25±2° C. for 3 to 5 days, until growth was visible in the growth control wells. After incubation, the 96-well plates were examined visually and on a spectrophotometer at absorbance OD650. MIC is defined as the lowest concentration of a compound in which no visible growth is observed.

In test [1] the test system is Candida albicans ATCC 90028. Briefly: MIC microdilution assay. The class given is cell-based. The conditions noted are these: Candida albicans, ATCC90028; C. albicans ATCC 90028; RPMI media; 35±2° C. 24 to 48 hours; two values given; read-out: MIC. On the procedure:
as §1, §2, §3, §5, §6

Test [2] relates to Staphylococcus aureus ATCC 33591. In words: MIC microdilution assay. The class given is cell-based. Conditions: Staphylococcus aureus, ATCC33591; S. aureus ATCC 33591; CAMHB; 35±2° C. 18 to 20 hours; two values given; read-out: MIC. How it is done:
as §1, §2, §3, §4

The test system of another test is P. aeruginosa ATCC 27853. In words: MIC microdilution assay. In kind it is cell-based, Pseudomonas aeruginosa. Conditions: Pseudomonas aeruginosa, ATCC27853, CAMHB, 35±2° C. 18 to 20 hours, two values given, read-out: MIC. How it is done:
as §1, §2, §3, §4

A further test has as its system Candida auris CDC 0385. Briefly: MIC microdilution assay (Example 32). The class given is cell-based. Conditions: Candidozyma auris, CDC0385; C. auris CDC 0385; RPMI media; 35±2° C. 24 to 48 hours; two values given; read-out: MIC. How it is done: (§7) Strain IDs starting with “ATCC” were acquired from the American Type Culture Collection (Manassas, VA), strain IDs starting with “Eurofins” were acquired from Eurofins (Herndon, VA), while strain IDs starting with “CDC” were acquired from the Centers for Disease Control and Prevention (Atlanta, GA). All strains were maintained as −80° C. frozen glycerol stocks. S. aureus and P. aeruginosa were grown overnight on Tryptic Soy Agar (TSA) plates at 35±2° C., ambient atmosphere, while S. pyogenes was grown overnight on TSA+5% defibrinated sheep blood at 35±2° C., 5% CO2. C. jejuni was grown for 48 hours on TSA+5% defibrinated sheep blood at 35±2° C., in a microaerophilic environment generated by CampyGen sachet. All fungal species (i.e. C. albicans and C. auris) were grown overnight on Sabouraud Dextrose Agar (SDA) plates at 35±2° C., ambient atmosphere.
(§8) Test article Compound 1 (batch #7G30A9.203) was stored at 4° C. The antibiotic Tobramycin and antifungal Amphotericin B were used as quality control (QC) compounds for the MIC assay. Stock solutions of 3.2 mg/mL Tobramycin (Sigma-Aldrich, cat #T1783-500MG) and 3.2 mg/mL Amphotericin B (CP Lab Chemicals, cat #TOK-A007-1G) were prepared in sterile ultrapure water.
(§9) For bacteria strains, a few colonies of each strain were collected with a sterile swab and used to make a McFarland 0.5 standard solution (approximately 1×10^8 CFU/mL) in sterile PBS. The McFarland was then diluted 1:180 in Cation Adjusted Muller-Hinton Broth (CAMHB) for S. aureus and P. aeruginosa. S. pyogenes McFarland was diluted 1:180 in CAMHB+5% defibrinated sheep blood, while C. jejuni McFarland was diluted 1:180 in CAMHB+5% laked horse blood. 90 μL of this inoculum was combined with 10 μL of the 10× test article in a 96-well plate for a final concentration of 1×.
as §5
(§10) Except for C. jejuni, all bacterial-strain MIC 96-well plates were incubated at 35±2° C. for 18 to 20 hours, ambient atmosphere. C. jejuni was incubated at 35±2° C. for 48 hours, under microaerophilic condition. All Candida MIC 96-well plates were incubated at 35±2° C. for 24 to 48 hours, ambient atmosphere, until growth in control wells were observed. After incubation, the 96-well plates were examined visually and on a spectrophotometer at absorbance OD650. MIC is defined as the lowest concentration of a compound in which no visible growth is observed.

For test [3], the system named is Candida albicans ATCC 90028. In words: MIC microdilution assay (Example 32). The class given is cell-based. Conditions: Candida albicans, ATCC90028; C. albicans ATCC 90028 (quality control); RPMI media; 35±2° C. 24 to 48 hours; two values given; read-out: MIC. How it is done: as §7, §8, §9, §5, §10

Consider `NC[C@H]1O[C@H](O[C@H]2[C@H](O)[C@@H](O[C@H]3O[C@H](CO)[C@@H](O)[C@H](N)[C@H]3O)[C@H](N)C[C@@H]2N)[C@H](N)C[C@@H]1O` [Tobramycin], for which the MIC (usually the smallest concentration in the dilution series that meets the test's criterion for growth inhibition) is 32 µg/mL (≈ 68.4 µM) with S. pyogenes ATCC 51339 (S. pyogenes ATCC 51339); 16 µg/mL (≈ 34.2 µM) in the test with S. pyogenes ATCC 51339 (Streptococcus pyogenes, ATCC51339, S. pyogenes ATCC 51339, read-out: MIC); over 32 µg/mL in the test on Candida auris CDC 0381; over 32 µg/mL in test [1]; over 32 µg/mL in test [2]; 0.25 µg/mL (≈ 0.535 µM) with P. aeruginosa ATCC 27853. Moreover, the MIC (in the test with Candida auris CDC 0385; in test [3]) was over 32 µg/mL in each case.
